Assay results taken from PubChem BioAssay AID2060504 (Molecular Pharmacology Branch, DTP, NCI, 2025).
One block for each compound: values may come before it.

System: 636577-100-R-J1-PDC complex spheroid viability
Assay: Anticancer human tumor 636577-100-R-J1-PDC patient-derived endometrial adenocarcinoma cell line growth inhibition [GQUAD]
Conditions: for IC50: curve of first compound; for viability, T/C: stronger effect = lower value
Procedure, shortened: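 Tumor cells were grown as complex spheroids with HUVEC endothelial cells and mesenchymal stem cells as stroma. G-quadruplex stabilizers were combined with targeted agents over half-log dilutions from near the clinical Cmax, or from 10 microM.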

[1] = second compound 0.0316 µM, first compound 0.0316 µM
[2] = second compound 0.0316 µM, first compound 0.1 µM
[3] = second compound 0.0316 µM, first compound 0.316 µM
[4] = second compound 0.0316 µM, first compound 1 µM
[5] = second compound 0.0316 µM, first compound 3.16 µM
[6] = second compound 0.0316 µM, first compound 10 µM
[7] = second compound 0.1 µM, first compound 0.0316 µM
[8] = second compound 0.1 µM, first compound 0.1 µM
[9] = second compound 0.1 µM, first compound 0.316 µM
[10] = second compound 0.1 µM, first compound 1 µM
[11] = second compound 0.1 µM, first compound 3.16 µM
[12] = second compound 0.1 µM, first compound 10 µM
[13] = second compound 0.316 µM, first compound 0.0316 µM
[14] = second compound 0.316 µM, first compound 0.1 µM
[15] = second compound 0.316 µM, first compound 0.316 µM
[16] = second compound 0.316 µM, first compound 1 µM
[17] = second compound 0.316 µM, first compound 3.16 µM
[18] = second compound 0.316 µM, first compound 10 µM
[19] = second compound 1 µM, first compound 0.0316 µM
[20] = second compound 1 µM, first compound 0.1 µM
[21] = second compound 1 µM, first compound 0.316 µM
[22] = second compound 1 µM, first compound 1 µM
[23] = second compound 1 µM, first compound 3.16 µM
[24] = second compound 1 µM, first compound 10 µM
[25] = second compound 3.16 µM, first compound 0.0316 µM
[26] = second compound 3.16 µM, first compound 0.1 µM
[27] = second compound 3.16 µM, first compound 0.316 µM
[28] = second compound 3.16 µM, first compound 1 µM
[29] = second compound 3.16 µM, first compound 3.16 µM
[30] = second compound 3.16 µM, first compound 10 µM
[31] = second compound 10 µM, first compound 0.0316 µM
[32] = second compound 10 µM, first compound 0.1 µM
[33] = second compound 10 µM, first compound 0.316 µM
[34] = second compound 10 µM, first compound 1 µM
[35] = second compound 10 µM, first compound 3.16 µM
[36] = second compound 10 µM, first compound 10 µM
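Further: viability read after seven days of drug exposure.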
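Wherever viability, T/C is given: luminescence signal used as a proxy for viable cells; 100% = DMSO vehicle control wells.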

IC50 (second compound 0.0316 µM): < 31.6 nM
IC50 (second compound 0.1 µM): < 31.6 nM
IC50 (second compound 0.316 µM): < 31.6 nM
IC50 (second compound 1 µM): < 31.6 nM
IC50 (second compound 3.16 µM): < 31.6 nM
IC50 (second compound 10 µM): < 31.6 nM
SMILES: O=C(NO)c1cnc(N2CCN(S(=O)(=O)c3ccc4ccccc4c3)CC2)nc1 + Cc1cnc(CNC(=O)c2c(=O)c3ccc(N4CCCN(C)CC4)nc3n3c2sc2ccccc23)cn1
viability, T/C [1]: 29.4%
viability, T/C [2]: 20.2%
viability, T/C [3]: 6.22%
viability, T/C [4]: 5.24%
viability, T/C [5]: 0.21%
viability, T/C [6]: 0.09%
viability, T/C [7]: 24.2%
viability, T/C [8]: 17.7%
viability, T/C [9]: 6.24%
viability, T/C [10]: 5.27%
viability, T/C [11]: 0.47%
viability, T/C [12]: 0.08%
viability, T/C [13]: 20%
viability, T/C [14]: 15.8%
viability, T/C [15]: 6.06%
viability, T/C [16]: 4.96%
viability, T/C [17]: 0.17%
viability, T/C [18]: 0.07%
viability, T/C [19]: 21.5%
viability, T/C [20]: 16.8%
viability, T/C [21]: 6.11%
viability, T/C [22]: 6.97%
viability, T/C [23]: 0.05%
viability, T/C [24]: 0.07%
viability, T/C [25]: 16.3%
viability, T/C [26]: 17.7%
viability, T/C [27]: 9.78%
viability, T/C [28]: 3.81%
viability, T/C [29]: 0.06%
viability, T/C [30]: 0.08%
viability, T/C [31]: 21.6%
viability, T/C [32]: 16.5%
viability, T/C [33]: 10.8%
viability, T/C [34]: 0.08%
viability, T/C [35]: 0.09%
viability, T/C [36]: 0.11%

IC50 (second compound 0.0316 µM): < 31.6 nM
IC50 (second compound 0.1 µM): < 31.6 nM
IC50 (second compound 0.316 µM): < 31.6 nM
IC50 (second compound 1 µM): < 31.6 nM
IC50 (second compound 3.16 µM): < 31.6 nM
IC50 (second compound 10 µM): < 31.6 nM
SMILES: COc1ccc([C@@H](O)c2cc(-c3ncnc4cc(N5CCOCC5)ccc34)c(F)cc2Cl)nn1 + Cc1cnc(CNC(=O)c2c(=O)c3ccc(N4CCCN(C)CC4)nc3n3c2sc2ccccc23)cn1
viability, T/C [1]: 47.1%
viability, T/C [2]: 42.8%
viability, T/C [3]: 20%
viability, T/C [4]: 10.8%
viability, T/C [5]: 9.47%
viability, T/C [6]: 9.92%
viability, T/C [7]: 30.6%
viability, T/C [8]: 22%
viability, T/C [9]: 15.2%
viability, T/C [10]: 12.2%
viability, T/C [11]: 13.5%
viability, T/C [12]: 11.6%
viability, T/C [13]: 22.8%
viability, T/C [14]: 21.2%
viability, T/C [15]: 13%
viability, T/C [16]: 13.2%
viability, T/C [17]: 13.6%
viability, T/C [18]: 12.8%
viability, T/C [19]: 18.2%
viability, T/C [20]: 18.3%
viability, T/C [21]: 13.8%
viability, T/C [22]: 15.4%
viability, T/C [23]: 14.1%
viability, T/C [24]: 10.8%
viability, T/C [25]: 20.3%
viability, T/C [26]: 17.9%
viability, T/C [27]: 18%
viability, T/C [28]: 16.1%
viability, T/C [29]: 16.6%
viability, T/C [30]: 13.6%
viability, T/C [31]: 19.5%
viability, T/C [32]: 21.2%
viability, T/C [33]: 19.6%
viability, T/C [34]: 18.5%
viability, T/C [35]: 16.5%
viability, T/C [36]: 14.5%

IC50 (second compound 0.0316 µM): < 31.6 nM
IC50 (second compound 0.1 µM): < 31.6 nM
IC50 (second compound 0.316 µM): < 31.6 nM
IC50 (second compound 1 µM): < 31.6 nM
IC50 (second compound 3.16 µM): < 31.6 nM
IC50 (second compound 10 µM): < 31.6 nM
SMILES: CC(=O)O[C@H]1C(=O)[C@@]2(C)[C@H]([C@H](OC(=O)c3ccccc3)[C@]3(O)C[C@H](OC(=O)[C@H](O)[C@@H](NC(=O)c4ccccc4)c4ccccc4)C(C)=C1C3(C)C)[C@]1(OC(C)=O)CO[C@@H]1C[C@@H]2O + Cc1cnc(CNC(=O)c2c(=O)c3ccc(N4CCCN(C)CC4)nc3n3c2sc2ccccc23)cn1
viability, T/C [1]: 22.4%
viability, T/C [2]: 13.4%
viability, T/C [3]: 13%
viability, T/C [4]: 10.6%
viability, T/C [5]: 9.54%
viability, T/C [6]: 9.18%
viability, T/C [7]: 23.1%
viability, T/C [8]: 16.2%
viability, T/C [9]: 14.3%
viability, T/C [10]: 10.2%
viability, T/C [11]: 12.1%
viability, T/C [12]: 10.1%
viability, T/C [13]: 23.6%
viability, T/C [14]: 18%
viability, T/C [15]: 13.9%
viability, T/C [16]: 12.5%
viability, T/C [17]: 11.2%
viability, T/C [18]: 10.7%
viability, T/C [19]: 21.2%
viability, T/C [20]: 16.5%
viability, T/C [21]: 15%
viability, T/C [22]: 14.2%
viability, T/C [23]: 13.2%
viability, T/C [24]: 10.7%
viability, T/C [25]: 19.6%
viability, T/C [26]: 18.2%
viability, T/C [27]: 17.2%
viability, T/C [28]: 14.3%
viability, T/C [29]: 15.7%
viability, T/C [30]: 14.3%
viability, T/C [31]: 18.1%
viability, T/C [32]: 18.5%
viability, T/C [33]: 17.8%
viability, T/C [34]: 15.3%
viability, T/C [35]: 15.2%
viability, T/C [36]: 15.3%
